For two compounds, relative permittivity results are on record in the NIST ThermoML archive (doi:10.1016/j.fluid.2010.02.038).

± gives the expanded uncertainty stated by the source.

This data set can be described thus: relative permittivity at various frequencies (dimensionless); xn = mol fraction of the nth substance listed. The note with it: 303.15 K, 101 kPa, Liquid, Frequency=1 MHz, Capacitive measurement method at f=1 MHz.

As to `NC=O` [formamide] + NCCO, the relative permittivity reads like this: (x2 = 0) 106.14 ± 0.64; (x2 = 0.068) 97.77 ± 1.3; (x2 = 0.141) 90.12 ± 1.2; (x2 = 0.22) 81.77 ± 1.1; (x2 = 0.305) 74.02 ± 0.98; (x2 = 0.397) 66.34 ± 0.87. Moreover, the relative permittivity reads like this: (x2 = 0.497) 59.14 ± 0.77; (x2 = 0.606) 52.04 ± 0.71; (x2 = 0.725) 44.61 ± 0.66; (x2 = 0.856) 36.91 ± 0.53.

With `CN(C)C=O` [dimethylformamide] + NCCO, the relative permittivity (x2 = 0) came to 36.55 ± 0.22.
